Measurements: PubChem BioAssay AID1963873 (Molecular Pharmacology Branch, DTP, NCI, 2024)
Values joined by “and” are separate entries in the source; they are usually repeats but may differ in a detail not shown here. Equal values may be shown once.

Tested on: 276233-004-R-J1-PDC KRAS spheroids with HUVEC/MSC, viability
Experiment: Anticancer human tumor 276233-004-R-J1-PDC patient-derived colon adenocarcinoma cell line growth inhibition [KRAS2]
Conditions: for viability, T/C: stronger effect = lower value
How it was run: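 KRAS-mutant tumor cells were grown as spheroids with HUVEC endothelial cells and human MSCs as stroma. Targeted agents were tested alone and with KRAS pathway inhibitors. Doses started at or near clinical Cmax, or 10 microM, descending half-log.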

[1] = curve of first compound, second compound 0.1 µM
[2] = curve of first compound, second compound 0.316 µM
[3] = curve of first compound, second compound 1 µM
[4] = curve of first compound, second compound 3.16 µM
[5] = curve of first compound, second compound 10 µM
[6] = second compound 0.1 µM, first compound 0.0316 µM
[7] = second compound 0.1 µM, first compound 0.1 µM
[8] = second compound 0.1 µM, first compound 0.316 µM
[9] = second compound 0.1 µM, first compound 1 µM
[10] = second compound 0.1 µM, first compound 3.16 µM
[11] = second compound 0.1 µM, first compound 10 µM
[12] = second compound 0.316 µM, first compound 0.0316 µM
[13] = second compound 0.316 µM, first compound 0.1 µM
[14] = second compound 0.316 µM, first compound 0.316 µM
[15] = second compound 0.316 µM, first compound 1 µM
[16] = second compound 0.316 µM, first compound 3.16 µM
[17] = second compound 0.316 µM, first compound 10 µM
[18] = second compound 1 µM, first compound 0.0316 µM
[19] = second compound 1 µM, first compound 0.1 µM
[20] = second compound 1 µM, first compound 0.316 µM
[21] = second compound 1 µM, first compound 1 µM
[22] = second compound 1 µM, first compound 3.16 µM
[23] = second compound 1 µM, first compound 10 µM
[24] = second compound 3.16 µM, first compound 0.0316 µM
[25] = second compound 3.16 µM, first compound 0.1 µM
[26] = second compound 3.16 µM, first compound 0.316 µM
[27] = second compound 3.16 µM, first compound 1 µM
[28] = second compound 3.16 µM, first compound 3.16 µM
[29] = second compound 3.16 µM, first compound 10 µM
[30] = second compound 10 µM, first compound 0.0316 µM
[31] = second compound 10 µM, first compound 0.1 µM
[32] = second compound 10 µM, first compound 0.316 µM
[33] = second compound 10 µM, first compound 1 µM
[34] = second compound 10 µM, first compound 3.16 µM
[35] = second compound 10 µM, first compound 10 µM
[36] = curve of first compound, second compound 0.0316 µM
[37] = second compound 0.0316 µM, first compound 0.0316 µM
[38] = second compound 0.0316 µM, first compound 0.1 µM
[39] = second compound 0.0316 µM, first compound 0.316 µM
[40] = second compound 0.0316 µM, first compound 1 µM
[41] = second compound 0.0316 µM, first compound 3.16 µM
[42] = second compound 0.0316 µM, first compound 10 µM
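Further: cells exposed to agents for seven days before viability read.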
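Wherever viability, T/C is given: 100% = DMSO vehicle control wells and lower values mean fewer viable cells.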

COc1cc(Nc2ncc3c(n2)-c2ccc(Cl)cc2C(c2c(F)cccc2OC)=NC3)ccc1C(=O)O + CC1OCC2(CCN(c3cnc(Sc4ccnc(N)c4Cl)c(N)n3)CC2)C1N
IC50 [1]: > 10 µM
IC50 [2]: > 10 µM
IC50 [3]: > 10 µM
IC50 [4]: 0.865 µM
IC50 [5]: < 0.0316 µM
viability, T/C [6]: 107%
viability, T/C [7]: 85.6%
viability, T/C [8]: 86%
viability, T/C [9]: 75.6%
viability, T/C [10]: 99%
viability, T/C [11]: 68.5%
viability, T/C [12]: 83.9%
viability, T/C [13]: 82.5%
viability, T/C [14]: 84.7%
viability, T/C [15]: 82.4%
viability, T/C [16]: 67.1%
viability, T/C [17]: 64%
viability, T/C [18]: 75%
viability, T/C [19]: 73.8%
viability, T/C [20]: 75.2%
viability, T/C [21]: 74.9%
viability, T/C [22]: 65%
viability, T/C [23]: 52.2%
viability, T/C [24]: 61%
viability, T/C [25]: 51.1%
viability, T/C [26]: 51.3%
viability, T/C [27]: 55.2%
viability, T/C [28]: 44.4%
viability, T/C [29]: 45.2%
viability, T/C [30]: 46.5%
viability, T/C [31]: 49.2%
viability, T/C [32]: 41.9%
viability, T/C [33]: 42%
viability, T/C [34]: 54%
viability, T/C [35]: 48%

COC(=O)c1ccc2c(C(=Nc3ccc(N(C)C(=O)CN4CCN(C)CC4)cc3)c3ccccc3)c(O)[nH]c2c1 + C=CC(=O)N1CCN(c2nc(=O)n(-c3c(C)ccnc3C(C)C)c3nc(-c4c(O)cccc4F)c(F)cc23)C(C)C1
IC50 [1]: > 10 µM
IC50 [2]: > 10 µM
IC50 [3]: > 10 µM
IC50 [4]: > 10 µM
IC50 [5]: 3.36 µM
viability, T/C [6]: 104%
viability, T/C [7]: 72.4%
viability, T/C [8]: 71.5%
viability, T/C [9]: 92.8%
viability, T/C [10]: 91.8%
viability, T/C [11]: 97.2%
viability, T/C [12]: 105%
viability, T/C [13]: 80.5%
viability, T/C [14]: 90%
viability, T/C [15]: 83%
viability, T/C [16]: 91.1%
viability, T/C [17]: 92.3%
viability, T/C [18]: 106%
viability, T/C [19]: 87.5%
viability, T/C [20]: 64.8%
viability, T/C [21]: 96.7%
viability, T/C [22]: 96%
viability, T/C [23]: 88.3%
viability, T/C [24]: 93.9%
viability, T/C [25]: 78.1%
viability, T/C [26]: 81.1%
viability, T/C [27]: 63.3%
viability, T/C [28]: 89.5%
viability, T/C [29]: 95.5%
viability, T/C [30]: 78.2%
viability, T/C [31]: 73.2%
viability, T/C [32]: 61.2%
viability, T/C [33]: 82.2%
viability, T/C [34]: 51.8%
viability, T/C [35]: 16.8%

CC1(C)CCC(CN2CCN(c3ccc(C(=O)NS(=O)(=O)c4ccc(NCC5CCOCC5)c([N+](=O)[O-])c4)c(Oc4cnc5[nH]ccc5c4)c3)CC2)=C(c2ccc(Cl)cc2)C1 + C=CC(=O)N1CCN(c2nc(OCC3CCCN3C)nc3c2CCN(c2cccc4cccc(C)c24)C3)CC1CC#N
IC50 [36]: > 10 µM
IC50 [1]: > 10 µM
IC50 [2]: 8.09 µM
IC50 [3]: 3.05 µM
IC50 [4]: < 0.0316 µM
viability, T/C [37]: 90.7%
viability, T/C [38]: 102%
viability, T/C [39]: 113%
viability, T/C [40]: 94.4%
viability, T/C [41]: 88%
viability, T/C [42]: 56%
viability, T/C [6]: 80.3%
viability, T/C [7]: 113%
viability, T/C [8]: 85.5%
viability, T/C [9]: 86.2%
viability, T/C [10]: 96.6%
viability, T/C [11]: 61.4%
viability, T/C [12]: 102%
viability, T/C [13]: 89%
viability, T/C [14]: 87.1%
viability, T/C [15]: 126%
viability, T/C [16]: 82.1%
viability, T/C [17]: 42.7%
viability, T/C [18]: 83.7%
viability, T/C [19]: 111%
viability, T/C [20]: 90.5%
viability, T/C [21]: 100%
viability, T/C [22]: 48.4%
viability, T/C [23]: 22.1%
viability, T/C [24]: 47.6%
viability, T/C [25]: 42.6%
viability, T/C [26]: 41.9%
viability, T/C [27]: 23.2%
viability, T/C [28]: 0.96%
viability, T/C [29]: 0.77%

C=CC(=O)N1CCN(c2nc(OCC3CCCN3C)nc3c2CCN(c2cccc4cccc(C)c24)C3)CC1CC#N (stereo not drawn)
IC50 (compound alone, run of 07/12/2021): > 3.16 µM and 2.82 µM
IC50 (compound alone, run of 07/19/2021): > 3.16 µM and 2.57 µM and 2.49 µM
IC50 (compound alone, run of 07/26/2021): > 3.16 µM

COc1cc(Nc2ncc3c(n2)-c2ccc(Cl)cc2C(c2c(F)cccc2OC)=NC3)ccc1C(=O)O + C=CC(=O)N1CCN(c2nc(OCC3CCCN3C)nc3c2CCN(c2cccc4cccc(C)c24)C3)CC1CC#N
IC50 [36]: > 10 µM
IC50 [1]: > 10 µM
IC50 [2]: > 10 µM
IC50 [3]: > 10 µM
IC50 [4]: 2.12 µM
viability, T/C [37]: 98.9%
viability, T/C [38]: 85.5%
viability, T/C [39]: 89.2%
viability, T/C [40]: 86.2%
viability, T/C [41]: 77.9%
viability, T/C [42]: 77%
viability, T/C [6]: 85.9%
viability, T/C [7]: 91.1%
viability, T/C [8]: 82.2%
viability, T/C [9]: 73.6%
viability, T/C [10]: 83.3%
viability, T/C [11]: 81%
viability, T/C [12]: 94.5%
viability, T/C [13]: 79%
viability, T/C [14]: 70.9%
viability, T/C [15]: 67.8%
viability, T/C [16]: 83.1%
viability, T/C [17]: 63.9%
viability, T/C [18]: 79.8%
viability, T/C [19]: 81.3%
viability, T/C [20]: 94.9%
viability, T/C [21]: 96.9%
viability, T/C [22]: 67.2%
viability, T/C [23]: 70.5%
viability, T/C [24]: 45.9%
viability, T/C [25]: 64%
viability, T/C [26]: 55.7%
viability, T/C [27]: 54.1%
viability, T/C [28]: 47.4%
viability, T/C [29]: 26.9%

CC(=O)OC12COC1CC(O)C1(C)C(=O)C(O)C3=C(C)C(OC(=O)C(O)C(NC(=O)OC(C)(C)C)c4ccccc4)CC(O)(C(OC(=O)c4ccccc4)C21)C3(C)C (stereo not drawn) + CNCc1ccccc1-c1csc(C(C)Nc2nc(C)nc3cc(OC)c(OC)cc23)c1
IC50 [1]: > 3.16 µM
IC50 [2]: > 3.16 µM
IC50 [3]: > 3.16 µM
IC50 [4]: 0.0216 µM
IC50 [5]: < 0.01 µM
viability, T/C (second compound 0.1 µM, first compound 0.01 µM): 102%
viability, T/C [6]: 96.3%
viability, T/C [7]: 83.4%
viability, T/C [8]: 81.1%
viability, T/C [9]: 105%
viability, T/C [10]: 87.5%
viability, T/C (second compound 0.316 µM, first compound 0.01 µM): 92%
viability, T/C [12]: 86.1%
viability, T/C [13]: 77%
viability, T/C [14]: 87.8%
viability, T/C [15]: 93.8%
viability, T/C [16]: 95.7%
viability, T/C (second compound 1 µM, first compound 0.01 µM): 103%
viability, T/C [18]: 91.4%
viability, T/C [19]: 89.9%
viability, T/C [20]: 111%
viability, T/C [21]: 119%
viability, T/C [22]: 117%
viability, T/C (second compound 3.16 µM, first compound 0.01 µM): 105%
viability, T/C [24]: 0.58%
viability, T/C [25]: 5.25%
viability, T/C [26]: 1.73%
viability, T/C [27]: 1.78%
viability, T/C [28]: 104%
viability, T/C (second compound 10 µM, first compound 0.01 µM): 4.38%
viability, T/C [30]: 2.71%
viability, T/C [31]: 6.51%
viability, T/C [32]: 1.17%
viability, T/C [33]: 110%
viability, T/C [34]: 0.46%

O=C(c1cc(Cc2n[nH]c(=O)c3ccccc23)ccc1F)N1CCN(C(=O)C2CC2)CC1 + CNCc1ccccc1-c1csc(C(C)Nc2nc(C)nc3cc(OC)c(OC)cc23)c1
IC50 [1]: > 10 µM
IC50 [2]: > 10 µM
IC50 [3]: > 10 µM
IC50 [4]: < 0.0316 µM
IC50 [5]: < 0.0316 µM
viability, T/C [6]: 98.5%
viability, T/C [7]: 99.5%
viability, T/C [8]: 84.5%
viability, T/C [9]: 87.5%
viability, T/C [10]: 110%
viability, T/C [11]: 96.5%
viability, T/C [12]: 103%
viability, T/C [13]: 80.8%
viability, T/C [14]: 90.3%
viability, T/C [15]: 85.3%
viability, T/C [16]: 84%
viability, T/C [17]: 68.7%
viability, T/C [18]: 99.2%
viability, T/C [19]: 86.8%
viability, T/C [20]: 88.5%
viability, T/C [21]: 73.8%
viability, T/C [22]: 87.1%
viability, T/C [23]: 78.2%
viability, T/C [24]: 5.86%
viability, T/C [25]: 1.28%
viability, T/C [26]: 0.99%
viability, T/C [27]: 1.9%
viability, T/C [28]: 1.8%
viability, T/C [29]: 2.47%
viability, T/C [30]: 3.64%
viability, T/C [31]: 5.22%
viability, T/C [32]: 3.94%
viability, T/C [33]: 5.16%
viability, T/C [34]: 0.77%
viability, T/C [35]: 1.05%
